According to US9078874B2, “Composition and method for treating cognitive impairments in down syndrom subjects” (Centre National De La Recherche Scientifique—CNRS, priority 2009, dated 2015):

Experiments:
[1] = tested on: cognitively-normal wildtype rodents; settings: cited from earlier work
[2] = tested on: euploid and Ts65Dn mice; assay: Pro-convulsant effects after pentylenetetrazol (45 mg/kg); format: in vivo; settings: sub-convulsant dose 45 mg/kg i.p.
Description: For testing the pro-convulsant effects of α5IA, a sub-convulsant dose of pentylenetetrazole (45 mg/kg i.p.) that induces myoclonic convulsions in about 50% of mice was injected i.p. 20 min after injection of α5IA (50 mg/kg) or placebo.
The proconvulsant action of the α5IA was measured after injection of a subconvulsive dose of pentylenetetrazole. Mice were injected with either vehicle or the α5IA (50 mg/kg i.p) and 20 min later they received an intraperitoneal injection of 45 mg/kg of pentylenetetrazole. […] Six to 7 mice were used for each condition. The latency to the first myoclonic jerk episode and the convulsion grade were recorded during a 1200-s period of observation. Four grades were empirically determined: Grade 0: no effect; grade 1: tail up and curved; grade 2: reversed tail and convulsive shivers; grade 3: myoclonic convulsions.
We then tested the proconvulsant effect of α5IA by injecting it (50 mg/kg) 20 min before a sub-convulsant dose of pentylenetetrazol (45 mg/kg) that induces myoclonic convulsions in about 50% of mice.

[3] = tested on: Ts65Dn mice; settings: mouse, in vivo; cited from earlier work
[4] = tested on: children with Down syndrome; settings: 7 to 13 year-old children with Down syndrome; even at doses associated with adverse effects; cited from earlier work
[5] = in vivo; cited from earlier work

## C1CCc2nnnn2CC1 [pentylenetetrazole]
[1]
  acquisition in the reference memory water maze test: can facilitate acquisition
[2]
  mice with myoclonic convulsions: about 50 % of mice
[3]
  cognition enhancement effect in treated mice compared to control non-treated mice: did not show a cognition enhancement effect

## NC(=O)CN1CCCC1=O [piracetam]
[4]
  cognitive and behavioural measures: neither cognitive nor behavioural measures demonstrated improvement

## CCOC(=O)c1ncn2c1[C@@H]1CCCN1C(=O)c1cc(OC)ccc1-2 [L-655,708]
[1]
  acquisition in the reference memory water maze test: can facilitate acquisition

## COC(=O)c1cc2c(cn1)[nH]c1ccccc12 [β-CCM]
[5]
  convulsant liability: proconvulsant or convulsant
  spatial learning in the Morris watermaze: enhanced spatial learning
